In patent publication US11339130B1 (Blade Therapeutics, Inc., priority 2016, dated 2022):
pIC50: −log10 of the molar value. Like-named read-outs stand apart in the source and are kept apart here.

Legend:
Human Calpain 1/NS1 = target: T1, Human Calpain 1/NS1 (Homo sapiens, UniProt P07384); test: Calpain inhibition continuous fluorescence (FRET) assay, Human Calpain 1/NS1; assay type: biochemical; conditions: read-out: Human Calpain 1/NS1 IC50
T1 sequence (P07384 1-714): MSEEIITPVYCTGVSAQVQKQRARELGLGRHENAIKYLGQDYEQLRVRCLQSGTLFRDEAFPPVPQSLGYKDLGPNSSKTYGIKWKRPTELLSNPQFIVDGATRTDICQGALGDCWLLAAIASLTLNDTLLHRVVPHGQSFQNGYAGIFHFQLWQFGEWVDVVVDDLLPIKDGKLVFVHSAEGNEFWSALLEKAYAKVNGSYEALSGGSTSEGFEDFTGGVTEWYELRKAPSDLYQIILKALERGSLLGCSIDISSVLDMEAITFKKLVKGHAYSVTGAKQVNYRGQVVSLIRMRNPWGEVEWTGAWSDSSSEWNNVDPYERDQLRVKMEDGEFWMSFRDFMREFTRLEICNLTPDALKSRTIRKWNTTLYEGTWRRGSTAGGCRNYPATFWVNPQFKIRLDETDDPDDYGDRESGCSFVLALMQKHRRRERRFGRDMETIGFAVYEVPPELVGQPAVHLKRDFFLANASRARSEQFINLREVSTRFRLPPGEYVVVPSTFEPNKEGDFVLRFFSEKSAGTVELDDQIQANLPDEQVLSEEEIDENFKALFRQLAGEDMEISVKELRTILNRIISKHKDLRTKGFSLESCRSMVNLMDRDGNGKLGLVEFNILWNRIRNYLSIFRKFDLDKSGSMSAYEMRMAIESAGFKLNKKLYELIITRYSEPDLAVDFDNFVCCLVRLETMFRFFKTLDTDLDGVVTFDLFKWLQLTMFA
T1 sequence (P04632 1-268 partner): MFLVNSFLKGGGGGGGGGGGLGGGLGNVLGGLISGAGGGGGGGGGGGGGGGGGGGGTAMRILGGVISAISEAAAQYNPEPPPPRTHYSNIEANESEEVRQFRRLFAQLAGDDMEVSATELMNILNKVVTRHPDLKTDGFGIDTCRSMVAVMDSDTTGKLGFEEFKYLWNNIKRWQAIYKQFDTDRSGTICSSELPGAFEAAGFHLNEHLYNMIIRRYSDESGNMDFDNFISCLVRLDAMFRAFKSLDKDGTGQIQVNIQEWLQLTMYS
Procedure, shortened: (§1)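 Inhibitors were preincubated with calpain in 50 mM Tris pH 7.5, 100 mM NaCl, 1 mM DTT at 25C. Reactions were started with 5-FAM/QXL 520 FRET peptide substrate plus CaCl2 and read at 490/520 nm for 10 min. IC50s came from 4-parameter fits of slope rates (1-5 min).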

Human Calpain 2/NS1 = target: T2, Human Calpain 2/NS1 (Homo sapiens, UniProt P17655); test: Calpain inhibition continuous fluorescence (FRET) assay, Human Calpain 2/NS1; assay type: biochemical; conditions: read-out: Human Calpain 2/NS1 IC50
T2 sequence (P17655 1-700): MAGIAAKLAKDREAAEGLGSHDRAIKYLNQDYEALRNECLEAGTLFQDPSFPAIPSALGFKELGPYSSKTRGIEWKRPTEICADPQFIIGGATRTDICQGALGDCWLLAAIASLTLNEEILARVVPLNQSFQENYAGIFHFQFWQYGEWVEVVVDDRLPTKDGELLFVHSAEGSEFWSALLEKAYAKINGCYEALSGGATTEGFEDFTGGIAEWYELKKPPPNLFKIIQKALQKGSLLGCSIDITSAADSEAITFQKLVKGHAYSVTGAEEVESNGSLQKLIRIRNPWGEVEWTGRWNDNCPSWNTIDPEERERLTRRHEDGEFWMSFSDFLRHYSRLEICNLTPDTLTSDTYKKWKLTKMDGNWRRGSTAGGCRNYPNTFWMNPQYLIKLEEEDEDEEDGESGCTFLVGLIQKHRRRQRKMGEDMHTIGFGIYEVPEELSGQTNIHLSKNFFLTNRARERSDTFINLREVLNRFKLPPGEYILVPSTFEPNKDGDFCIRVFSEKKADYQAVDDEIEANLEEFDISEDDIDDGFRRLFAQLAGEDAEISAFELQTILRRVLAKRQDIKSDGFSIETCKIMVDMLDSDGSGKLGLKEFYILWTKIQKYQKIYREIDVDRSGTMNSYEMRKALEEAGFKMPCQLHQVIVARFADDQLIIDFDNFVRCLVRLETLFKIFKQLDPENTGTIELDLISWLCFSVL
T2 sequence (P04632 1-268 partner): T1 sequence (P04632 1-268 partner)
Procedure, shortened: as §1

Human Calpain 9/NS1 = target: T3, Human Calpain 9/NS1 (Homo sapiens, UniProt O14815); test: Calpain inhibition continuous fluorescence (FRET) assay, Human Calpain 9/NS1; assay type: biochemical; conditions: read-out: Human Calpain 9/NS1 IC50
T3 sequence (O14815 1-690): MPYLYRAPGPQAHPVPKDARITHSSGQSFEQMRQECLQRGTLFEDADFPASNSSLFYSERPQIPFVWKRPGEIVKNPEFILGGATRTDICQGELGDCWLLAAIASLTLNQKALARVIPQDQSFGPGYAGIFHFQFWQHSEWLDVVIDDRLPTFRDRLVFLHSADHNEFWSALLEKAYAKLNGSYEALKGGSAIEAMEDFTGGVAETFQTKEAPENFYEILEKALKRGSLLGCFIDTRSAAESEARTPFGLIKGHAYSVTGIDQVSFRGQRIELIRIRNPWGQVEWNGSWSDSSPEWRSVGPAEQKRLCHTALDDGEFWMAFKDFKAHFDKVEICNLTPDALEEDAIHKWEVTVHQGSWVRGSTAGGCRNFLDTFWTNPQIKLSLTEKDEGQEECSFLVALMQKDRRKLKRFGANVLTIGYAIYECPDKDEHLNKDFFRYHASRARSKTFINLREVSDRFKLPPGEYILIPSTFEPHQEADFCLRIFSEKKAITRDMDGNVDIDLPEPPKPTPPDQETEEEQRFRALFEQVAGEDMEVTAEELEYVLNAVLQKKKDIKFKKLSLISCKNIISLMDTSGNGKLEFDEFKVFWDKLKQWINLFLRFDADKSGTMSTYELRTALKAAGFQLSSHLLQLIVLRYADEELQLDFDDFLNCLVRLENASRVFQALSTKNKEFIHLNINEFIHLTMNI
T3 sequence (P04632 1-268 partner): T1 sequence (P04632 1-268 partner)
Procedure, shortened: as §1

[1] = system: Calpain activity in SH-SY5Y cells (SBDP-150); test: SH-SY5Y Spectrin western blot assay (SBDP-150 breakdown product, A23187-induced); assay type: cell-based; conditions: Homo sapiens, read-out: SH-SY5Y Spectrin IC50
[2] = system: Calpain activity in SH-SY5Y cells; test: SH-SY5Y + AMC fluorescence assay (Suc-LLVY-AMC substrate); assay type: cell-based
[3] = SH-SY5Y cells, A23187-induced SBDP-150, western blot
[4] = Column D, SH-SY5Y cells, A23187-induced SBDP-150
[5] = Column E, read-out: SH-SY5Y + AMC IC50

SMILES | pIC50 (Human Calpain 1/NS1) | pIC50 (Human Calpain 2/NS1) | pIC50 (Human Calpain 9/NS1) | pIC50 [1, 3] | pIC50 ([2]; read-out: SH-SY5Y + AMC IC50) | pIC50 (Human Calpain 1/NS1; Column A) | pIC50 (Human Calpain 2/NS1; Column B) | pIC50 (Human Calpain 9/NS1; Column C) | pIC50 [1, 4] | pIC50 [2, 5] | pIC50 ([1]; SH-SY5Y) | pIC50 ([2]; read-out: SH-SY5Y + AMC IC50, Column E)
Cn1cc(C(=O)NC(C=O)Cc2ccccc2)c(-c2ccccc2F)n1 (stereo not shown) [Compound 520, 3-(2-Fluorophenyl)-1-methyl-N-(1-oxo-3-phenylpropan-2-yl)-1H-pyrazole-4-carboxamide] | > 5.52 | > 5.52 | > 5.52 | < 4.60 | 4.60 to 5.00 | – | – | – | – | – | – | –
Cc1cc(-c2nn(C)cc2C(=O)NC(Cc2ccccc2)C(=O)C(N)=O)c(C)s1 (stereo not shown) [Compound 499, N-(4-amino-3,4-dioxo-1-phenylbutan-2-yl)-3-(2,5-dimethylthiophen-3-yl)-1-methyl-1H-pyrazole-4-carboxamide] | > 5.52 | > 5.52 | > 5.52 | 4.60 to 5.00 | > 5.00 | – | – | – | – | – | – | –
Cc1cccc(-n2nc(C)cc2C(=O)N[C@@H](Cc2ccccc2)C(=O)C(N)=O)n1 [Compound 84, (S)—N-(4-amino-3,4-dioxo-1-phenylbutan-2-yl)-3-methyl-1-(6-methylpyridin-2-yl)-1H-pyrazole-5-carboxamide] | – | – | – | – | – | > 5.52 | > 5.52 | > 5.52 | > 5.00 | > 5.00 | – | –
COc1cccc(-c2nn(C)cc2C(=O)N[C@@H](Cc2ccccc2)C(=O)C(N)=O)c1 [Compound 177, (S)—N-(4-amino-3,4-dioxo-1-phenylbutan-2-yl)-3-(3-methoxyphenyl)-1-methyl-1H-pyrazole-4-carboxamide] | – | – | – | – | – | > 5.52 | > 5.52 | > 5.52 | 4.60 to 5.00 | > 5.00 | – | –
CC(=O)NCc1ccc(-n2nc(C)cc2C(=O)N[C@@H](Cc2ccccc2)C(=O)C(N)=O)cc1 [Compound 157, (S)-1-(4-(acetamidomethyl)phenyl)-N-(4-amino-3,4-dioxo-1-phenylbutan-2-yl)-3-methyl-1H-pyrazole-5-carboxamide] | – | – | – | – | – | > 5.52 | > 5.52 | > 5.52 | – | – | < 4.60 | < 4.60
COc1ccc(C[C@H](NC(=O)c2oc(C)nc2-c2ccccc2)C(=O)C(N)=O)cc1 [Compound 385, (S)—N-(4-amino-1-(4-methoxyphenyl)-3,4-dioxobutan-2-yl)-2-methyl-4-phenyloxazole-5-carboxamide] | > 5.52 | > 5.52 | > 5.52 | > 5.00 | < 4.60 | – | – | – | – | – | – | –
Cc1cc(C(=O)N[C@@H](Cc2ccccc2)C(=O)C(N)=O)n(-c2ccc(-c3ccc(F)cc3)cc2)n1 [Compound 126, (S)—N-(4-amino-3,4-dioxo-1-phenylbutan-2-yl)-1-(4′-fluoro-[1,1′-biphenyl]-4-yl)-3-methyl-1H-pyrazole-5-carboxamide] | – | – | – | – | – | > 5.52 | > 5.52 | > 5.52 | > 5.00 | < 4.60 | – | –
Cc1nc(-c2cccc(F)c2)c(C(=O)N[C@H](C=O)Cc2ccccc2)o1 [Compound 353, (S)-4-(3-fluorophenyl)-2-methyl-N-(1-oxo-3-phenylpropan-2-yl)oxazole-5-carboxamide] | > 5.52 | > 5.52 | > 5.52 | 4.60 to 5.00 | < 4.60 | – | – | – | – | – | – | –
NC(=O)C(=O)[C@H](Cc1ccccc1)NC(=O)c1cncn1-c1ccc(-c2ccccc2)nn1 [Compound 200, (S)—N-(4-amino-3,4-dioxo-1-phenylbutan-2-yl)-1-(6-phenylpyridazin-3-yl)-1H-imidazole-5-carboxamide] | – | – | – | – | – | > 5.52 | > 5.52 | > 5.52 | 4.60 to 5.00 | < 4.60 | – | –
Cc1ccc(F)cc1-c1oncc1C(=O)NC(Cc1ccccc1)C(=O)C(N)=O (stereo not shown) [Compound 558, N-(4-amino-3,4-dioxo-1-phenylbutan-2-yl)-5-(5-fluoro-2-methylphenyl)isoxazole-4-carboxamide] | > 5.52 | > 5.52 | > 5.52 | 4.60 to 5.00 | > 5.00 | – | – | – | – | – | – | –
COc1cccc(-n2nc(C)cc2C(=O)N[C@@H](Cc2ccccc2)C(=O)C(N)=O)n1 [Compound 99, (S)—N-(4-amino-3,4-dioxo-1-phenylbutan-2-yl)-1-(6-methoxypyridin-2-yl)-3-methyl-1H-pyrazole-5-carboxamide] | – | – | – | – | – | > 5.52 | > 5.52 | > 5.52 | 4.60 to 5.00 | 4.60 to 5.00 | – | –
Cc1cc(C(=O)N[C@@H](Cc2ccccc2)C(=O)C(N)=O)n(-c2ccc(COCc3ccccc3)cc2)n1 [Compound 228, (S)—N-(4-amino-3,4-dioxo-1-phenylbutan-2-yl)-1-(4-((benzyloxy)methyl)phenyl)-3-methyl-1H-pyrazole-5-carboxamide] | – | – | – | – | – | > 5.52 | > 5.52 | > 5.52 | > 5.00 | < 4.60 | – | –
NC(=O)C(=O)C(Cc1ccccc1)NC(=O)c1cn(C(F)(F)F)nc1-c1ccccc1 (stereo not shown) [Compound 489, N-(4-amino-3,4-dioxo-1-phenylbutan-2-yl)-3-phenyl-1-(trifluoromethyl)-1H-pyrazole-4-carboxamide] | > 5.52 | > 5.52 | > 5.52 | 4.60 to 5.00 | 4.60 to 5.00 | – | – | – | – | – | – | –
Cn1cc(C(=O)NC(Cc2ccccc2)C(=O)C(N)=O)c(-c2cccc3c2OC(F)(F)O3)n1 (stereo not shown) [Compound 510, N-(4-amino-3,4-dioxo-1-phenylbutan-2-yl)-3-(2,2-difluorobenzo[d][1,3]dioxol-4-yl)-1-methyl-1H-pyrazole-4-carboxamide] | > 5.52 | > 5.52 | > 5.52 | 4.60 to 5.00 | 4.60 to 5.00 | – | – | – | – | – | – | –
